This is an account of results in PubChem BioAssay (NCI).

Some test systems named below: HOP-62 NSCLC; MALME-3M melanoma; NCI-H460 lung; EKVX NSCLC; M14 melanoma; RXF 393 renal; SK-MEL-5 melanoma; SK-OV-3 ovarian; HCT-116 colon; HL-60(TB) leukemia; MDA-MB-231 breast; CAKI-1 renal; PC-3 prostate; MDA-N; 786-0 renal; SR leukemia.
Test in all cases: NCI tumour cell line growth inhibition, 48 h

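Where inhibition never reached the appropriate level, the endpoint shown equals the highest concentration tested. Otherwise, values were interpolated linearly from a five-concentration, 48-hour dose response in 96-well plates. At the GI50, growth is halved. TGI denotes the concentration required for complete inhibition of growth.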

As to `CC(=O)OC1/C=C(\C)C(OC(C)=O)C/C=C(/C)CCC2C(/C=C/C1=O)C2(C)C` (configuration not stated), the TGI in the test on HOP-62 NSCLC, with MALME-3M melanoma, in the test on NCI-H460 lung, in the test with EKVX NSCLC, in the test on M14 melanoma and with RXF 393 renal was over 100 µM each time. The TGI in the test on SK-MEL-5 melanoma, in the test with SK-OV-3 ovarian and in the test on HCT-116 colon was over 100 µM each time.
On to `NS(=O)(=O)c1ccc(/C=C/c2ccc(O)c(O)c2)cc1`, for which the values for the GI50 in the test with HL-60(TB) leukemia, in the test with CAKI-1 renal and with SR leukemia were 16.3 µM, 29.1 µM and 12.7 µM, respectively. For the same compound, the TGI is over 100 µM in the test on HL-60(TB) leukemia; over 100 µM in the test on HOP-62 NSCLC; 64.6 µM in the test on MDA-MB-231 breast; over 100 µM with MALME-3M melanoma; over 100 µM in the test with NCI-H460 lung; over 100 µM in the test on CAKI-1 renal. Besides, the TGI was 64 µM in the test with EKVX NSCLC; over 100 µM with M14 melanoma; 83.5 µM in the test with PC-3 prostate; 65.7 µM in the test with MDA-N; over 100 µM with RXF 393 renal; 29.6 µM in the test on SK-MEL-5 melanoma. In addition, the TGI with SK-OV-3 ovarian is 48.8 µM; with 786-0 renal, over 100 µM; in the test on SR leukemia it was 51.3 µM; in the test with HCT-116 colon, over 100 µM.
On to `COC(=O)c1c(O)ccc2c1c1c(n2Cc2cc(OC)cc(OC)c2)C(=O)c2ccccc2C1`, for which the TGI in the test with HL-60(TB) leukemia is over 100 µM; with HOP-62 NSCLC it was over 100 µM; with MDA-MB-231 breast, 91.6 µM; in the test on MALME-3M melanoma, over 100 µM; in the test on NCI-H460 lung, over 100 µM; in the test on CAKI-1 renal, 63.7 µM. In addition, the TGI in the test with M14 melanoma is over 100 µM; in the test with PC-3 prostate, 49.1 µM; with MDA-N, over 100 µM; in the test with RXF 393 renal, 68.6 µM; in the test on SK-MEL-5 melanoma, over 100 µM; with SK-OV-3 ovarian, over 100 µM. Besides, the TGI in the test on 786-0 renal, with SR leukemia and with HCT-116 colon was over 100 µM each time.
For `CC1(C)OC(C(=O)Nc2cc3c4ccccc4ccc3c3ccccc23)C(C(=O)N2CCCCC2)O1` (configuration not stated), the TGI in the test with HL-60(TB) leukemia was over 100 µM; with HOP-62 NSCLC it was over 100 µM; in the test on MDA-MB-231 breast it was over 100 µM; with MALME-3M melanoma, over 100 µM; in the test on NCI-H460 lung, 27.7 µM; in the test on CAKI-1 renal it was over 54.6 µM. Further, the TGI in the test on EKVX NSCLC was over 100 µM; with M14 melanoma, over 100 µM; in the test with PC-3 prostate, over 100 µM; in the test with MDA-N it was over 100 µM; in the test on RXF 393 renal, over 27.7 µM; with SK-MEL-5 melanoma, over 100 µM. The TGI in the test on SK-OV-3 ovarian, in the test with 786-0 renal and with HCT-116 colon was over 100 µM each time.
On to `O=P(O)(O)CCP(=O)(O)O`, for which the TGI with HL-60(TB) leukemia, in the test with HOP-62 NSCLC, in the test with MDA-MB-231 breast, in the test with MALME-3M melanoma, in the test with NCI-H460 lung and in the test with CAKI-1 renal was over 100 µM in each case. The TGI in the test on EKVX NSCLC, with M14 melanoma, in the test on PC-3 prostate, with MDA-N, in the test with RXF 393 renal and in the test with SK-MEL-5 melanoma was over 100 µM each time. Further, the TGI in the test with SK-OV-3 ovarian, in the test on 786-0 renal, in the test on SR leukemia and in the test with HCT-116 colon was over 100 µM each time.
Turning to `NC(CCCCCP(=O)(c1ccccc1)C1C=CC=CC1)C(=O)O` (configuration not stated), the TGI in the test with HL-60(TB) leukemia, with MDA-MB-231 breast, in the test on NCI-H460 lung, in the test with CAKI-1 renal, in the test with EKVX NSCLC and in the test on M14 melanoma was over 100 µM throughout. Moreover, the TGI in the test on PC-3 prostate, with MDA-N, with RXF 393 renal, in the test with SK-MEL-5 melanoma, in the test on SK-OV-3 ovarian and with SR leukemia was over 100 µM each time. The TGI with HCT-116 colon was over 100 µM.
With `CCCC(=O)OCC1OC(n2ccc(N)nc2=O)C(OC(=O)CCC)C1OC(=O)CCC` (configuration not stated), the TGI was 25.1 µM in the test with HL-60(TB) leukemia; 8.55 µM in the test with HOP-62 NSCLC; over 100 µM in the test with MALME-3M melanoma; over 100 µM in the test on NCI-H460 lung; over 100 µM in the test on CAKI-1 renal; 16.8 µM in the test on EKVX NSCLC. Besides, the TGI in the test on RXF 393 renal, in the test with SK-MEL-5 melanoma, in the test with SK-OV-3 ovarian and with HCT-116 colon was over 100 µM throughout.
In the case of `Nc1c(C(=O)O)nnc2ccc(Cl)cc12`, the TGI in the test with HL-60(TB) leukemia, in the test on HOP-62 NSCLC, in the test on MDA-MB-231 breast, with MALME-3M melanoma, in the test on NCI-H460 lung and with CAKI-1 renal was over 100 µM throughout. Further, the TGI in the test with EKVX NSCLC, in the test on M14 melanoma, in the test on PC-3 prostate, with MDA-N, in the test on SK-MEL-5 melanoma and in the test with SK-OV-3 ovarian was over 100 µM throughout. For the same compound, the TGI in the test with 786-0 renal, with SR leukemia and with HCT-116 colon was over 100 µM throughout.
As to `COc1ccc(/C=C2\CCNC2=O)cc1`, the TGI with HL-60(TB) leukemia was over 100 µM; in the test with HOP-62 NSCLC, over 100 µM; with MALME-3M melanoma, over 100 µM; with NCI-H460 lung, over 100 µM; in the test with CAKI-1 renal, over 100 µM; in the test with EKVX NSCLC, over 80.9 µM. The TGI with SK-MEL-5 melanoma, with SK-OV-3 ovarian and in the test with HCT-116 colon was over 100 µM throughout.
As to `O=c1sc2ccccc2n1CC1CS1` (configuration not stated), the TGI with HL-60(TB) leukemia, in the test with HOP-62 NSCLC, in the test on MALME-3M melanoma, in the test on NCI-H460 lung, in the test on CAKI-1 renal and with EKVX NSCLC was over 100 µM throughout. Further, the TGI in the test with M14 melanoma, in the test with RXF 393 renal, in the test on SK-OV-3 ovarian, in the test with SR leukemia and in the test on HCT-116 colon was over 100 µM each time.
